# Target: T1, GLUT1 (Homo sapiens, UniProt P11166)
# T1 sequence (P11166 1-492): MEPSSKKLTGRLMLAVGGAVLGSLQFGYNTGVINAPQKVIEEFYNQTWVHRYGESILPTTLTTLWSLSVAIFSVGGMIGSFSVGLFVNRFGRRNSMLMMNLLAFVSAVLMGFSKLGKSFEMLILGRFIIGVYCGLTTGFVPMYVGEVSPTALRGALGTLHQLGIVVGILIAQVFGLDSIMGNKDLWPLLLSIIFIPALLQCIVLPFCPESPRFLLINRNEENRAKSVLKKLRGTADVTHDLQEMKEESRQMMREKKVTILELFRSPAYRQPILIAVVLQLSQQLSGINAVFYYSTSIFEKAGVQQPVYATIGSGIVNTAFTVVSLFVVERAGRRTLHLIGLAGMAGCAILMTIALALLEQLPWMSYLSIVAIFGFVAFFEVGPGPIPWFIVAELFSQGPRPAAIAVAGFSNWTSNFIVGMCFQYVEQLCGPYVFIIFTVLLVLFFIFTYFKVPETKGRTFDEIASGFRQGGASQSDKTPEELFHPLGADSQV
# Test: Indirect measurement of GLUT1 activity by quantification of intracellular ATP levels (glucose induced ATP increase)
# Assay type: cell-based
# Parameters: endogenous in cells; host or cells: DLD1 or CHO-K1
# Settings: read-out: IC50 regarding glucose induced ATP increase (GLUT1 inhibition)
# In short: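 Intracellular ATP was measured by CellTiter-Glo luminescence as an indirect readout of transport: glucose-driven for GLUT1, fructose-driven for GLUT2. DLD1 or CHO-K1 cells were used alongside an oxidative phosphorylation inhibitor. Beforehand, cells were held overnight in glucose-free 1% FCS medium to deplete ATP.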
row,Structure (SMILES),IC50 [nM]
1,Cc1nn(Cc2ccc(C(=O)NCCC(C)O)cc2)c(C)c1NC(=O)c1cc(C(F)(F)F)nc2ccc(Br)cc12 (centres unmarked) [Example 1211],581
2,Cc1nn(Cc2ccc(C(=O)N3CCN(C)CC3)cc2)c(C)c1NC(=O)c1cc(C(F)(F)F)nc2ccc(Br)cc12 [Example 1212],598
3,CC(=O)N1CCC(Cn2nc(C)c(NC(=O)c3cc(C(N)=O)nc4ccccc34)c2C)CC1 [Example 1213],614
4,Cc1c(NC(=O)c2cc(C(N)=O)nc3ccccc23)c(C(=O)N(C)C)nn1Cc1ccc(F)cc1 [Example 1214],622
5,Cc1nn(Cc2ccc(C(=O)N[C@H]3CCCC[C@@H]3O)cc2)c(C)c1NC(=O)c1cc(C(F)(F)F)nc2ccc(Br)cc12 [Example 1215],649
6,Cc1nn(Cc2ccc(C(=O)NCCC3CCCN3C)cc2)c(C)c1NC(=O)c1cc(C(F)(F)F)nc2ccc(Br)cc12 (centres unmarked) [Example 1216],673
7,Cc1nn(Cc2ccc(C(=O)N3CCC(O)CC3)cc2)c(C)c1NC(=O)c1cc(C(F)(F)F)nc2ccc(Br)cc12 [Example 1217],676
8,Cc1nn(CCN2CCOCC2)c(C)c1NC(=O)c1cc(C(F)(F)F)nc2ccc(Br)cc12 [Example 1218],694
9,Cc1nn(Cc2ccc(F)cc2)c(C(=O)NCCO)c1NC(=O)c1cc(C(F)(F)F)nc2ccc(Br)cc12 [Example 1219],708
10,Cc1nn(CCN2CCCCC2)c(C)c1NC(=O)c1cc(C(F)(F)F)nc2ccc(Br)cc12 [Example 1220],723
11,Cc1nn(Cc2ccc(C(=O)N(C)C)cn2)c(C)c1NC(=O)c1cc(C(F)(F)F)nc2ccc(Br)cc12 [Example 1221],749
12,Cc1nn(CC2CCNCC2)c(C)c1NC(=O)c1cc(C(F)(F)F)nc2ccc(Br)cc12 [Example 1222],883
13,Cc1nn(Cc2ccc(C(=O)NCC(N)=O)cc2)c(C)c1NC(=O)c1cc(C(F)(F)F)nc2ccc(Br)cc12 [Example 1223],891
14,Cc1nn(Cc2ccc(C(=O)N(C)CCN(C)C)cc2)c(C)c1NC(=O)c1cc(C(F)(F)F)nc2ccc(Br)cc12 [Example 1224],912
15,CCOC(=O)c1nn(Cc2ccc(F)cc2)c(C)c1NC(=O)c1cc(C(F)(F)F)nc2ccc(Br)cc12 [Example 1225],914
16,Cc1ccc2nc(C)cc(C(=O)Nc3c(C)nn(C/C=C/c4ccccc4)c3C)c2c1 [Example 1226],924
17,CCCCCN(CCO)C(=O)c1ccc(Cn2nc(C)c(NC(=O)c3cc(C(F)(F)F)nc4ccc(Br)cc34)c2C)cc1 [Example 1228],962
18,COc1ccc(CNC(=O)c2ccc(Cn3nc(C)c(NC(=O)c4cc(C(F)(F)F)nc5ccc(Br)cc45)c3C)cc2)cc1 [Example 1229],999
19,Cc1nn(Cc2ccc(C(=O)NC(CO)CO)cn2)c(C)c1NC(=O)c1cc(C(F)(F)F)nc2ccc(Br)cc12 [Example 1230],1000
20,CNC(=O)c1nn(Cc2ccc(F)cc2)c(C)c1NC(=O)c1cc(C(N)=O)nc2ccccc12 [Example 1231],1040
21,COc1ccccc1Cn1nc(C)c(NC(=O)c2cc(C)nc3ccc(C)cc23)c1C [Example 1232],1050
22,Cc1cc(C)n(CCn2nc(C)c(NC(=O)c3cc(C(F)(F)F)nc4ccc(Br)cc34)c2C)n1 [Example 1233],1110
23,Cc1nn(Cc2ccc(C(=O)N3CCOCC3)cn2)c(C)c1NC(=O)c1cc(C(F)(F)F)nc2ccc(Br)cc12 [Example 1234],1180
24,Cc1c(NC(=O)c2cc(C(F)(F)F)nc3ccc(Br)cc23)c(C(=O)NCCO)nn1Cc1ccc(F)cc1 [Example 1235],1280
25,Cc1ccc2nc(C)cc(C(=O)Nc3c(C)nn(Cc4cccc(F)c4)c3C)c2c1 [Example 1236],1290
26,Cc1cc(C(=O)Nc2c(C)nn(Cc3ccc(F)cc3)c2C)c2cc(C#N)ccc2n1 [Example 1237],1320
27,Cc1nn(Cc2cc(F)ccc2F)c(C)c1NC(=O)c1cc(C(F)(F)F)nc2ccc(Br)cc12 [Example 1238],1370
28,Cc1nn(Cc2ccc(C(=O)NCC3(CO)COC3)cn2)c(C)c1NC(=O)c1cc(C(F)(F)F)nc2ccc(Br)cc12 [Example 1239],1470
29,Cc1nn(Cc2ccc(CC(=O)NCCN3CCOCC3)cc2)c(C)c1NC(=O)c1cc(C(F)(F)F)nc2ccc(Br)cc12 [Example 1240],1500
30,Cc1nn(CC2CCNCC2)c(C)c1NC(=O)c1cc(C(N)=O)nc2ccccc12 [Example 1241],1530

# Results, then the molecule that gave them:
row,IC50 [nM],Structure (SMILES)
1,205,Cc1nn(CC2CCCO2)c(C)c1NC(=O)c1cc(C(F)(F)F)nc2ccc(Br)cc12 (centres unmarked) [Example 1175]
2,208,Cc1ccc2nc(C)cc(C(=O)Nc3c(C)nn(CC4CCOCC4)c3C)c2c1 [Example 1176]
3,221,Cc1c(NC(=O)c2cc(C(F)(F)F)nc3ccc(Br)cc23)c(C(F)(F)F)nn1Cc1ccc(C(=O)NCCN(C)C)cn1 [Example 1177]
4,224,Cc1nn(Cc2ccc(C(=O)NCCCc3ccccc3)cc2)c(C)c1NC(=O)c1cc(C(F)(F)F)nc2ccc(Br)cc12 [Example 1178]
5,228,Cc1nn(Cc2ccc(C(=O)N[C@H](C)CO)cc2)c(C)c1NC(=O)c1cc(C(F)(F)F)nc2ccc(Br)cc12 [Example 1179]
6,231,Cc1nn(Cc2ccc(F)cc2)c(C(=O)N(C)C)c1NC(=O)c1cc(C(F)(F)F)nc2ccc(Br)cc12 [Example 1180]
7,237,COc1cc(C(=O)Nc2c(C)nn(CCc3ccc(F)cc3)c2C)c2ccccc2n1 [Example 1181]
8,238,Cc1nn(Cc2ccc(C(=O)NC3CCCC3)cc2)c(C)c1NC(=O)c1cc(C(F)(F)F)nc2ccc(Br)cc12 [Example 1182]
9,241,COc1ccccc1CNC(=O)c1ccc(Cn2nc(C)c(NC(=O)c3cc(C(F)(F)F)nc4ccc(Br)cc34)c2C)cc1 [Example 1183]
10,242,Cc1nn(CC2CCN(C(=O)OC(C)(C)C)CC2)c(C)c1NC(=O)c1cc(C(N)=O)nc2ccccc12 [Example 1184]
11,247,Cc1nn(Cc2ccc(C(=O)Nc3cccc(C(N)=O)c3)cc2)c(C)c1NC(=O)c1cc(C(F)(F)F)nc2ccc(Br)cc12 [Example 1185]
12,277,Cc1nn(Cc2ccc(C(=O)N(C)CCO)cc2)c(C)c1NC(=O)c1cc(C(F)(F)F)nc2ccc(Br)cc12 [Example 1186]
13,288,CNC(=O)CN(C)C(=O)c1ccc(Cn2nc(C)c(NC(=O)c3cc(C(F)(F)F)nc4ccc(Br)cc34)c2C)cc1 [Example 1187]
14,290,COc1cc(C(=O)Nc2c(C(F)(F)F)nn(Cc3ccncc3C#N)c2C)c2ccccc2n1 [Example 1188]
15,310,COc1cc(C(=O)Nc2c(C)nn(Cc3ccncc3C#N)c2C)c2ccccc2n1 [Example 1189]
16,312,Cc1cccc(CNC(=O)c2ccc(Cn3nc(C)c(NC(=O)c4cc(C(F)(F)F)nc5ccc(Br)cc45)c3C)cc2)c1 [Example 1190]

row,IC50 [nM],Structure (SMILES)
1,335,Cc1nn(Cc2ccc(C(=O)NCCN3CCOCC3)cn2)c(C)c1NC(=O)c1cc(C(F)(F)F)nc2ccc(Br)cc12 [Example 1191]
2,339,Cc1nn(Cc2ccc(C(=O)N3CCN(CCO)CC3)cc2)c(C)c1NC(=O)c1cc(C(F)(F)F)nc2ccc(Br)cc12 [Example 1192]
3,343,Cc1nn(Cc2ccc(C(=O)NCC3CCOCC3)cc2)c(C)c1NC(=O)c1cc(C(F)(F)F)nc2ccc(Br)cc12 [Example 1193]
4,363,Cc1c(NC(=O)c2cc(C(F)(F)F)nc3ccc(Br)cc23)c(C(F)(F)F)nn1Cc1ccc(C(=O)N(C)C)cn1 [Example 1194]
5,385,Cc1nn(Cc2ccc(F)cc2)c(C(N)=O)c1NC(=O)c1cc(C(F)(F)F)nc2ccc(Br)cc12 [Example 1197]
6,390,Cc1nn(Cc2ccc(C#N)cc2)c(C)c1NC(=O)c1cc(C(F)(F)F)nc2ccc(-c3c(C)noc3C)cc12 [Example 1198]
7,408,Cc1c(NC(=O)c2cc(C(F)(F)F)nc3ccc(Br)cc23)c(C(F)(F)F)nn1Cc1ccc(C(=O)N2CCOCC2)cn1 [Example 1200]
8,428,Cc1nn(CC2CCN(C(=O)OC(C)(C)C)CC2)c(C)c1NC(=O)c1cc(C(F)(F)F)nc2ccc(Br)cc12 [Example 1201]
9,430,COc1cc(C(=O)Nc2c(C)nn(CCc3cccc(F)c3)c2C)c2ccccc2n1 [Example 1202]
10,433,CCN(CC)C(=O)c1ccc(Cn2nc(C)c(NC(=O)c3cc(C(F)(F)F)nc4ccc(Br)cc34)c2C)cc1 [Example 1203]
11,436,Cc1nn(Cc2ccc(C(=O)NCCC(C)(C)O)cc2)c(C)c1NC(=O)c1cc(C(F)(F)F)nc2ccc(Br)cc12 [Example 1204]
12,451,Cc1nn(CC2CNC(=O)O2)c(C)c1NC(=O)c1cc(C(F)(F)F)nc2ccc(Br)cc12 (centres unmarked) [Example 1206]
13,477,Cc1nn(Cc2ccc(C(N)=O)cn2)c(C)c1NC(=O)c1cc(C(N)=O)nc2ccc(F)cc12 [Example 1207]
14,481,Cc1nn(CC2COc3ccccc3O2)c(C)c1NC(=O)c1cc(C(F)(F)F)nc2ccc(Br)cc12 (centres unmarked) [Example 1208]
15,502,Cc1nn(Cc2ccc(C(=O)NCc3cccc(O)c3)cc2)c(C)c1NC(=O)c1cc(C(F)(F)F)nc2ccc(Br)cc12 [Example 1209]
16,572,Cc1ccc(CCNC(=O)c2ccc(Cn3nc(C)c(NC(=O)c4cc(C(F)(F)F)nc5ccc(Br)cc45)c3C)cc2)cc1 [Example 1210]
